In test [1] the target is T1, preformed amyloid fibrils from TGFBIp611-633 G623R peptide (Homo sapiens, UniProt Q15582, G623R).
T1 construct: The 23-amino acid long peptide (TGFBIp 611-633 c.623 G>R) from the 4th FAS1 domain; purchased Synpeptide Co Ltd, Shanghai, China; host or cells: synthetic peptide
Nature of the test: Circular Dichroism assay (θ[218]), disaggregation of preformed amyloid fibrils. The format is biochemical. The settings on record: for inhibition at 200000 µM / disruption of the β-sheet structure compared among the four osmolytes, CD: preformed fibrils; for inhibition at 200000 µM: read-out: % Inhibition (mean ± SD) n = 3, θ[218] of preformed amyloid fibrils, circular dichroism; for % Dissolution at final time point, CD: TGFBIp-G623R preformed fibrils, listed as taurine. On the procedure:
Circular Dichroism (CD) spectroscopy was performed to study the disaggregation of the preformed amyloid fibrils. […] The treatment solutions were studied by far UV-CD assay.
Circular Dichroism (CD) spectroscopy was performed to study the disaggregation of the preformed amyloid fibrils. The preformed amyloid fibrils were treated with taurine at a concentration of 200 mM and 320 mM in PBS buffer at pH 7.0 for 24 h, 48 h and 72 respectively. The treatment solutions were studied by far UV-CD assay.

Test [2] has as its target T2, TGFBIp611-633 G623R peptide (Homo sapiens, UniProt Q15582, G623R).
T2 construct: The 23-amino acid long peptide (TGFBIp 611-633 c.623 G>R) from the 4th FAS1 domain; purchased Synpeptide Co Ltd, Shanghai, China; host or cells: synthetic peptide
Nature of the test: Circular Dichroism assay (θ[218]), inhibition of amyloid fibrillation. The format is biochemical. On the procedure:
The peptide samples were collected 0.1 cm path length quartz cuvettes and examined in a Chirascan™-plus Spectropolarimeter (Applied Photophysics Limited, UK). Spectra were recorded from 260 nm to 190 nm in 0.1 nm steps at a scan rate of 50 nm/min. The final spectrum was the average of three scans as per the manufacturer's recommendation. The Mean Residual Weight (MRW) ellipticity ([θ]mrw values) at wavelength λ was calculated using the following equation (i): […]
whereby θλ is the observed ellipticity at a particular wavelength (degrees), I is the path length (cm), and c is the concentration (g/ml). Secondary structures of the protein were analyzed using CDNN software.
The θ[218] values that determine the β-sheet secondary structure were used to calculate the percentage inhibition in cross β-sheet in the untreated and osmolyte-treated peptide samples at various time points. Percentage inhibition for each osmolyte treatment per time point was calculated by normalizing the [θ]218 values of osmolyte treatment with the [θ]218 values of the untreated samples and expressed as a percentage.
(§1) Circular Dichroism (CD) spectroscopy was performed to study the changes in the secondary structure of the peptides. The TGFBIp^611-633 G623R peptides were treated with 200 mM and 320 mM of taurine in PBS buffer at pH 7.0 for 24 h, 48 h and 72 h, respectively. While the TGFBIp^611-633 N622K peptides were treated with 200 mM and 320 mM of taurine in PBS buffer at pH 7.0 for 72 h, 96 h, 120 h, 144 h, 192 h, 216 h, and 240 h, respectively. The treatment solutions were studied by far UV-CD assay.
A general note: Circular dichroism is the unequal absorption of left and right circularly polarised light.

Test [3] deals with T1, preformed amyloid fibrils from TGFBIp611-633 G623R peptide. Kind of test: ThT fluorescence microscopy, disaggregation of preformed amyloid fibrils. The settings on record: 200 mM and 320 mM. On the procedure:
The ability of osmolytes to disaggregate the preformed amyloid fibrils were investigated further by fluorescence microscopy after ThT staining. The peptide samples collected at the various time points above were incubated at a ratio of 1:1 ratio of thpeptide solution to ThT in the dark for 30 minutes to obtain solutions for fluorescence microscopy. 25 μl of the solutions were taken on to slides with coverslips and visualized under a fluorescent microscope. Three representative images from each time point under a given condition was used for the quantitation of fluorescence. Image J software was used to quantify the signal from the images and the values for each time point per osmolyte treatment were normalised to the untreated sample at that particular time point.
The inhibition effect of taurine on the preformed amyloid fibrils was investigated further by fluorescence microscopy after ThT staining. The samples collected at the various time points above were incubated ThT at a ratio of 1:1 ratio in the dark for 30 minutes to obtain solutions for fluorescence microscopy. 25 μl of the solutions were taken on to slides with coverslips and visualized under a fluorescent microscope.

Test [4] concerns the target T3, TGFBIp611-633 N622K peptide (Homo sapiens, UniProt Q15582, N622K).
T3 construct: The TGFBIp^611-633 N622K peptides were treated with 200 mM and 320 mM of taurine; purchased Synpeptide Co Ltd, Shanghai, China; host or cells: synthetic peptide
Nature of the test: Circular Dichroism assay, inhibition of amyloid fibrillation. The format is biochemical. The settings on record: TGFBIp-N622K, final time point, read-out: % Inhibition at final time point, CD. The protocol: as §1

Test [5] has as its target T3, TGFBIp611-633 N622K peptide. Nature of the test: ThT fluorescence assay, inhibition of amyloid fibrillation. The format is biochemical. As to conditions: TGFBIp-N622K, final time point. The protocol:
The TGFBIp^611-633 G623R peptides were treated with 200 mM and 320 mM of taurine for up to 72 hours, respectively, the results of which are illustrated in FIG. 11. The TGFBIp^611-633 N622K peptides were treated with 200 mM and 320 mM of taurine for up to 240 hours, respectively, the results of which are illustrated in FIG. 12. The peptides incubated with PBS were used as controls.
The peptide samples were collected at 24 h, 48 h and 72 h after treatment for TGFBIp^611-633 G623R peptides and at 120 h, 144 h and […] after treatment for the TGFBIp^611-633 N622K peptides. The samples were then treated with 30 μM ThT in PBS buffer at pH 5.5 in a 96-well microplate for ThT fluorescence assay. The microplate was excited at 445 nm and the resulting emission fluorescence at 485 nm was measured using a microplate reader.

[6] abbreviates: 200 mM, 24 h, read-out: % Inhibition (mean ± SD) n = 3, θ[218] circular dichroism.
Where [7] appears, read: 200 mM, 48 h, read-out: % Inhibition (mean ± SD) n = 3, θ[218] circular dichroism.
The mark [8] stands for this setting: 200 mM, 72 h, read-out: % Inhibition (mean ± SD) n = 3, θ[218] circular dichroism.

Entries after “also recorded” stand apart in the source; their conditions may differ. Where two headings read alike, the source gives them in different places.

T3 sequence (Q15582 611-633 N622K limits assumed): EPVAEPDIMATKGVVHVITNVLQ
T1 sequence (Q15582 611-633 G623R limits assumed): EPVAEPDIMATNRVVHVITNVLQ

The term inhibition denotes the change of the read-out against control, counted positive when it falls. Turning to `OC[C@H]1O[C@H](OC[C@H]2O[C@H](O[C@]3(CO)O[C@H](CO)[C@@H](O)[C@@H]3O)[C@H](O)[C@@H](O)[C@@H]2O)[C@H](O)[C@@H](O)[C@H]1O` [Raffinose, raffinose], the inhibition at 200000 µM is 7 ± 7% in test [1] (200 mM, 24 h); 48 ± 9% in test [1] (200 mM, 48 h); approximately 58% in test [1] (200 mM, 72 h); 19% in test [2] (setting [6]); 23% in test [2] (setting [7]); 57% in test [2] (setting [8]). The “disruption of the β-sheet structure compared among the four osmolytes, CD” value in test [1] (200 mM) is reported as “highest disruption of the β-sheet structure”. The “inhibitory effect on fibrillation compared among the four osmolytes, CD” value in test [2] (200 mM) was “maximum inhibition; also recorded: maximum inhibitory effect”.

As usually defined, the % Inhibition is the percentage by which the read-out fell short of the control. Low readings indicate a response near the control, high ones a response far below the control. As to `NCCS(=O)(=O)O` [Taurine, taurine], the inhibition at 200000 µM in test [1] (200 mM, 24 h) is 13 ± 6%; in test [1] (200 mM, 48 h) it was 40 ± 12%; in test [1] (200 mM, 72 h), approximately 54%; in test [4] (200 mM), 39%; in test [2] (setting [6]) it was approximately 25%; in test [2] (setting [7]), approximately 54%. Moreover, the inhibition at 200000 µM in test [2] (setting [8]) was approximately 56%; in test [2] (TGFBIp-G623R, 200 mM, final time point, read-out: % Inhibition at final time point, CD) it was 41%; in test [5] (200 mM) it was 37%. In addition, the “disruption of the β-sheet structure compared among the four osmolytes, CD” value in test [1] (200 mM) is reported as “highest disruption of the β-sheet structure”. The “% Dissolution at final time point, CD” value in test [1] (200 mM) stood at 49%; in test [1] (320 mM), 69%. Also, the “fluorescent intensity under microscope, preformed fibrils” value in test [3] is given as “reduction in fluorescent intensity”. Further, the inhibition at 320000 µM was 66% in test [4] (320 mM); 61% in test [2] (TGFBIp-G623R, 320 mM, final time point, read-out: % Inhibition at final time point, CD); 76% in test [5] (320 mM). For the same compound, the “% Inhibition at final time point, CD” value in test [2] (TGFBIp-G623R, 200 mM, final time point) is 42%; in test [2] (TGFBIp-G623R, 320 mM, final time point), 63%.

`CNCC(=O)O` [Sarcosine, sarcosine]: the inhibition at 200000 µM in test [1] (200 mM, 24 h) is 12 ± 8%; in test [1] (200 mM, 48 h) it was 39 ± 6%; in test [1] (200 mM, 72 h), 41%; in test [2] (setting [6]), approximately 17%; in test [2] (setting [7]) it was approximately 43%; in test [2] (setting [8]), approximately 57%. For the same compound, in test [2] (200 mM), the “inhibitory effect on fibrillation compared among the four osmolytes, CD” value is “maximum inhibition”.

`C[N+](C)(C)CC(=O)O` [Betaine, betaine]: the inhibition at 200000 µM in test [1] (200 mM, 24 h) turned out to be 6 ± 1%; in test [1] (200 mM, 48 h), 24 ± 11%; in test [1] (200 mM, 72 h), 36%; in test [2] (setting [6]), 8%; in test [2] (setting [7]), 19%; in test [2] (setting [8]), 34%.

Values taken from patent US20220265591A1, “USE OF AN OSMOLYTE IN MANUFACTURE OF A MEDICAMENT FOR TREATMENT OF OCULAR DISORDERS” (SINGAPORE HEALTH SERVICES PTELTD, priority 2019, published 2022).
